Experimental data published in patent publication US20240381872A1, “SUBSTITUTED 2,3-DIHYDRO[1,3]THIAZOLO[4,5-B]PYRIDINES, SALTS THEREOF AND THEIR USE AS HERBICIDALLY ACTIVE SUBSTANCES” (BAYER AKTIENGESELLSCHAFT, priority 2021, published 2024).

How the values were obtained:
Assay type in all cases: in vivo
[1] = test system: Amaranthus retroflexus (AMARE); assay: Herbicidal pre-emergence action, section C (Table C11); conditions: visual grading after ca. 3 weeks
Outline: (§1)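 Greenhouse pre-emergence test on sandy loam: spray of formulated compound onto covering soil at 600 l water/ha, then percent damage judged by eye after ca. 3 weeks relative to untreated pots.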

[2] = test system: Polygonum convolvulus (POLCO); assay: Herbicidal pre-emergence action, section C (Table C7); conditions: visual grading after ca. 3 weeks; for pest or weed control at 320 g/ha / pest or weed control at 80 g/ha: Fallopia convolvulus, pre-emergence, 504 h, read-out: pre-emergence activity against POLCO in %
Source text: (§2) Seeds of mono- and dicotyledonous weed plants and crop plants were sown, in plastic or organic planting pots, in sandy loam and covered with soil. The compounds according to the invention, formulated in the form of wettable powders (WP) or as emulsifiable concentrates (EC), were applied to the surface of the covering soil as aqueous suspension or emulsion, with the addition of 0.5% of an additive, at an application rate of 600 l of water/ha (converted). Following treatment, the pots were placed in a greenhouse and kept under optimum growth conditions for the test plants. The visual grading of the damage to the test plants was carried out after ca. 3 weeks in comparison to untreated controls (herbicidal effect in percent (%): 100% effect=plants have died off, 0% effect=as control plants).

Veronica persica (VERPE) = assay: Herbicidal pre-emergence action, section C (Table C10); conditions: Veronica persica, pre-emergence, 504 h, visual grading after ca. 3 weeks, read-out: pre-emergence activity against VERPE in %; for pest or weed control at 320 g/ha: application rate 320 g/ha; for pest or weed control at 80 g/ha: application rate 80 g/ha
Source text: as §2

Glycine max (GLXMA) = assay: Post-emergence effects on crop plants, section F (Table F4); conditions: for percent crop plant damage at 80 g/ha / percent crop plant damage at 320 g/ha: Glycine max, 504 h, read-out: post-emergence activity against GLXMA in %; for percent crop plant damage at 80 g/ha / post-emergence activity against GLXMA in %: application rate 80 g/ha; for post-emergence activity against GLXMA in %: crop plant damage; for percent crop plant damage at 320 g/ha: application rate 320 g/ha
Outline: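 After sowing in sandy loam and 2–3 weeks' greenhouse growth, single-leaf plants received foliar sprays (WP or EC, 0.5% additive, 600 l/ha water, ≤320 g/ha). Around 3 weeks on, herbicidal effect was estimated by eye, 0% meaning like controls and 100% meaning plants died.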

[3] = test system: Echinochloa crus-galli (ECHCG); assay: Herbicidal pre-emergence action, section C (Table C3); conditions: visual grading after ca. 3 weeks vs untreated controls; for pest or weed control at 80 g/ha / pest or weed control at 320 g/ha: Echinochloa crus-galli, pre-emergence, 504 h, read-out: pre-emergence activity against ECHCG in %
Outline: as §1

[4] = test system: Digitaria sanguinalis (DIGSA); assay: Herbicidal pre-emergence action, section C (Table C12); conditions: visual grading after ca. 3 weeks; for pest or weed control at 80 g/ha / pest or weed control at 320 g/ha: Digitaria sanguinalis, pre-emergence, 504 h, read-out: pre-emergence activity against DIGSA in %
Outline: as §1

[5] = test system: Amaranthus retroflexus (AMARE); assay: Herbicidal post-emergence action, section B (Table B11); conditions: visual rating about 3 weeks after treatment vs untreated controls
Outline: (§3)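 Potted weeds in sandy loam are treated post-emergence at the one-leaf stage, 2 to 3 weeks after sowing. The spray is an aqueous WP or EC preparation with 0.5% additive at 600 liters per hectare. Percent activity is assessed by eye after about 3 weeks versus untreated controls.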

[6] = test system: Digitaria sanguinalis (DIGSA); assay: Herbicidal pre-emergence action, section A (Table A12); conditions: for pest or weed control at 320 g/ha / pest or weed control at 1280 g/ha: Digitaria sanguinalis, 504 h, read-out: pre-emergence activity against DIGSA in %
Outline: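 Read-out is visual herbicidal effect in percent (100% = plants died, 0% = as control), graded ca. 3 weeks after treatment. Test compounds as WP or EC were applied to covering soil over sown seeds with 0.5% additive, 600 l water per hectare; greenhouse growth.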

Kochia scoparia (KCHSC) = assay: Herbicidal post-emergence action, section B (Table B4); conditions: visual rating about 3 weeks after treatment vs untreated controls
Outline: as §3

[7] = test system: Abutilon theophrasti (ABUTH); assay: Herbicidal post-emergence action, section B (Table B1); conditions: rated visually after about 3 weeks; for pest or weed control at 1280 g/ha: Abutilon theophrasti, 504 h, application rate 1280 g/ha, read-out: post-emergence activity against ABUTH in %; for post-emergence activity against ABUTH in %: application rate 320 g/ha
Outline: as §3

[8] = test system: Abutilon theophrasti (ABUTH); assay: Herbicidal post-emergence action, section E (Table E1); conditions: assessed visually after ca. 3 weeks
Source text: Seeds of mono- and dicotyledonous weed plants and crop plants were sown, in plastic or organic planting pots, in sandy loam, covered with soil and grown in a greenhouse under controlled growth conditions. 2 to 3 weeks after sowing, the test plants were sprayed in the single-leaf stage. The compounds according to the invention, formulated in form of wettable powders (WP) or as emulsifiable concentrates (EC), were sprayed onto the green plant parts as aqueous suspension or emulsion, with the addition of 0.5% of an additive, at an application rate of 600 l of water/ha (converted). The test plants were placed in the greenhouse for ca. 3 weeks under optimum growth conditions, and then the effect of the preparations was assessed visually in comparison with untreated controls (herbicidal effect in percent (%): 100% effect=plants have died off, 0% effect=as control plants).

[9] = Amaranthus retroflexus, pre-emergence, 504 h, application rate 80 g/ha, read-out: pre-emergence activity against AMARE in %
[10] = Amaranthus retroflexus, post-emergence, 504 h, application rate 320 g/ha, read-out: post-emergence activity against AMARE in %
[11] = Bassia scoparia, post-emergence, 504 h, application rate 320 g/ha, read-out: post-emergence activity against KCHSC in %

SMILES	pest or weed control at 320 g/ha ([2]; application rate 320 g/ha) [%]	pest or weed control at 320 g/ha (Veronica persica (VERPE)) [%]	percent crop plant damage at 80 g/ha (Glycine max (GLXMA)) [%]	pest or weed control at 80 g/ha ([3]; application rate 80 g/ha) [%]	pre-emergence activity against DIGSA in % ([4]; application rate 320 g/ha) [%]	post-emergence activity against KCHSC in % (Kochia scoparia (KCHSC); application rate 320 g/ha) [%]	pre-emergence activity against ECHCG in % ([3]; application rate 320 g/ha) [%]	pest or weed control at 80 g/ha [1, 9] [%]	pest or weed control at 80 g/ha ([4]; application rate 80 g/ha) [%]	pest or weed control at 320 g/ha [5, 10] [%]	pest or weed control at 320 g/ha (Kochia scoparia (KCHSC); [11]) [%]	also measured
Fc1ccccc1-c1nc2c(cc1Br)SCN2 [Example I-001, 6-bromo-5-(2-fluorophenyl)-2,3-dihydro[1,3]thiazolo[4,5-b]pyridine]	80	80	20	100								pest or weed control at 320 g/ha ([1]; Amaranthus retroflexus, pre-emergence, 504 h, application rate 320 g/ha, read-out: pre-emergence activity against AMARE in %): 90%
COC(=O)CCC(=O)N1CSc2cc(Cl)c(-c3ccccc3F)nc21 [Example I-003]					90	90	80					post-emergence activity against AMARE in % ([5]; application rate 1280 g/ha): 90%; pre-emergence activity against DIGSA in % ([6]; application rate 1280 g/ha): 100%; post-emergence activity against GLXMA in % (Glycine max (GLXMA)): 0%
BN1CSc2cc(Br)c(-c3ccccc3C)nc21 [Example I-011]					100		100					post-emergence activity against AMARE in % ([5]; application rate 1280 g/ha): 90%; post-emergence activity against KCHSC in % (Kochia scoparia (KCHSC); application rate 1280 g/ha): 90%
Cc1cc2c(nc1-c1cccc(F)c1F)NCS2 [Example I-029, 5-(2,3-difluorophenyl)-6-methyl-2,3-dihydro[1,3]thiazolo[4,5-b]pyridine]	80	80		100				80	90	90	90	pest or weed control at 1280 g/ha [7]: 90%; pest or weed control at 320 g/ha ([6]; application rate 320 g/ha): 100%
Clc1ccccc1-c1nc2c(cc1Br)SCN2 [Example I-041, 6-bromo-5-(2-chlorophenyl)-2,3-dihydro[1,3]thiazolo[4,5-b]pyridine]			0					90		90	90	pest or weed control at 320 g/ha ([4]; application rate 320 g/ha): 100%; pest or weed control at 1280 g/ha [7]: 90%; pest or weed control at 80 g/ha ([2]; application rate 80 g/ha): 80%; pest or weed control at 1280 g/ha ([6]; application rate 1280 g/ha): 100%; pest or weed control at 320 g/ha ([3]; application rate 320 g/ha): 100%
CCc1ccccc1-c1nc2c(cc1C)[S+]([O-])CN2 (centres unmarked) [Example I-047]	80		0					90	90	90	90	pest or weed control at 80 g/ha (Veronica persica (VERPE)): 80%; pest or weed control at 1280 g/ha ([6]; application rate 1280 g/ha): 100%
Cc1cc2c(nc1-c1ccccc1Cl)NCS2 [Example I-049, 5-(2-chlorophenyl)-6-methyl-2,3-dihydro[1,3]thiazolo[4,5-b]pyridine]	80	80		100				80	90			
CC(=O)N1CSc2cc(Br)c(-c3ccccc3Cl)nc21 [Example I-055, 1-[6-bromo-5-(2-chlorophenyl)[1,3]thiazolo[4,5-b]pyridin-3(2H)-yl]ethanone]	80	80						90	90	90		pest or weed control at 320 g/ha ([6]; application rate 320 g/ha): 100%; percent crop plant damage at 320 g/ha (Glycine max (GLXMA)): 20%; pest or weed control at 1280 g/ha (Kochia scoparia (KCHSC); Bassia scoparia, post-emergence, 504 h, application rate 1280 g/ha, read-out: post-emergence activity against KCHSC in %): 90%; pest or weed control at 320 g/ha ([3]; application rate 320 g/ha): 100%
CC(C)C(=O)N1C[S+]([O-])c2cc(Br)c(-c3ccccc3)nc21 (centres unmarked) [Example I-067]		80		90				80				pest or weed control at 320 g/ha ([4]; application rate 320 g/ha): 100%; pest or weed control at 80 g/ha ([2]; application rate 80 g/ha): 90%; percent crop plant damage at 320 g/ha (Glycine max (GLXMA)): 10%
CCS(=O)(=O)N1C[S+]([O-])c2cc(C)c(-c3ccccc3C)nc21 (centres unmarked) [Example I-074]	90		0	100				90			90	pest or weed control at 320 g/ha ([4]; application rate 320 g/ha): 100%; pest or weed control at 80 g/ha (Veronica persica (VERPE)): 80%; pest or weed control at 1280 g/ha ([5]; Amaranthus retroflexus, post-emergence, 504 h, application rate 1280 g/ha, read-out: post-emergence activity against AMARE in %): 90%; pest or weed control at 1280 g/ha ([6]; application rate 1280 g/ha): 100%
Cc1cc2c(nc1-c1ccccc1)N(C(=O)C1(C)CC(Cl)=NO1)CS2 (centres unmarked) [Example I-088]					100	90	100					post-emergence activity against ABUTH in % ([8]; application rate 320 g/ha): 90%; pre-emergence activity against AMARE in % ([1]; application rate 320 g/ha): 90%; post-emergence activity against ABUTH in % [7]: 90%; pre-emergence activity against POLCO in % ([2]; application rate 320 g/ha): 90%; post-emergence activity against AMARE in % ([5]; application rate 320 g/ha): 90%; pre-emergence activity against DIGSA in % ([6]; application rate 320 g/ha): 100%; post-emergence activity against GLXMA in % (Glycine max (GLXMA)): 0%
Cc1cc2c(nc1-c1ccccc1F)N(C(=O)C13CCCC1C(Cl)=NO3)CS2 (centres unmarked) [Example I-104]						90						post-emergence activity against ABUTH in % ([8]; application rate 80 g/ha): 80%; pre-emergence activity against AMARE in % ([1]; application rate 80 g/ha): 80%; pre-emergence activity against DIGSA in % ([4]; application rate 80 g/ha): 100%; post-emergence activity against ABUTH in % [7]: 90%; pre-emergence activity against POLCO in % ([2]; application rate 80 g/ha): 80%; post-emergence activity against AMARE in % ([5]; application rate 320 g/ha): 90%; pre-emergence activity against DIGSA in % ([6]; application rate 320 g/ha): 100%; pre-emergence activity against ECHCG in % ([3]; application rate 80 g/ha): 100%
Cc1cc2c(nc1-c1cccc(C)c1F)NCS2 [Example I-113]					100	90	100					pre-emergence activity against POLCO in % ([2]; application rate 80 g/ha): 90%; pre-emergence activity against DIGSA in % ([6]; application rate 320 g/ha): 100%; post-emergence activity against GLXMA in % (Glycine max (GLXMA)): 0%
